Measured values as given in patent US20260174871A1, “THIXOTROPIC DELIVERY SYSTEMS” (UNIVERSITY OF MONTANA, priority 2019, published 2026).
Values after ≈ are worked out from the molar mass of the structure shown. Read-outs that look alike come from different tables or passages of the source.

Key:
S. aureus 13709 [1] = assay: Kill kinetics of ciprofloxacin with or without gels; assay type: cell-based, Staphylococcus aureus
Experimental: (§1) Growth was measured by sampling media placed above the thixogel and then quantifying colony forming units (CFU's) by serial dilution.

P. aeruginosa 27853 [2] = assay: as above; assay type: cell-based, Pseudomonas aeruginosa
Experimental: as §1

P. aeruginosa 27853 [3] = assay: Minimum Inhibitory Concentration (MIC) of antibiotics with or without thixogel; assay type: cell-based, Pseudomonas aeruginosa
Text: (§2) The Minimum Inhibitory Concentration (MIC) defines the lowest antibiotic concentration that inhibits 99.9% of bacterial growth.

S. aureus 13709 [4] = assay: as above; assay type: cell-based, Staphylococcus aureus
Text: as §2

[5] = ciprofloxacin 30 μg/mL loaded in HA and SF gels

O=C(O)c1cn(C2CC2)c2cc(N3CCNCC3)c(F)cc2c1=O [Ciprofloxacin, ciprofloxacin]
inhibition at 30 µg/mL (S. aureus 13709 [1]; Staphylococcus aureus, 13709, gel loaded drug, 30 μg/mL, read-out: inhibition of bacterial growth): 100% | time to complete inhibition of bacterial growth (S. aureus 13709 [1]; [5]): around four | inhibition of bacterial growth (S. aureus 13709 [1]; gel loaded drug, 30 μg/mL): more than 3 log10 | inhibition at 30 µg/mL (P. aeruginosa 27853 [2]; Pseudomonas aeruginosa, 27853, gel loaded drug, 30 μg/mL, read-out: inhibition of bacterial growth): 100% | time to complete inhibition of bacterial growth (P. aeruginosa 27853 [2]; [5]): around four | inhibition of bacterial growth (P. aeruginosa 27853 [2]; gel loaded drug, 30 μg/mL): more than 3 log10

C[C@@H](O)[C@H]1C(=O)N2C(C(=O)O)=C(SCCN=CN)C[C@H]12 [Imipenem, imipenem]
MIC (P. aeruginosa 27853 [3]; Pseudomonas aeruginosa, 27853, P. aeruginosa 27853, No Gel, read-out: Minimum Inhibitory Concentrations (MIC)): 2 µg/mL (≈ 6.68 µM) | MIC (P. aeruginosa 27853 [3]; Pseudomonas aeruginosa, 27853, P. aeruginosa 27853, antibiotic delivered in HA thixogel, read-out: Minimum Inhibitory Concentrations (MIC)): 4 µg/mL (≈ 13.4 µM) | MIC (P. aeruginosa 27853 [3]; Pseudomonas aeruginosa, 27853, P. aeruginosa 27853, antibiotic delivered in SF thixogel, read-out: Minimum Inhibitory Concentrations (MIC)): > 4 µg/mL | MIC (S. aureus 13709 [4]; Staphylococcus aureus, 13709, S. aureus 13709, No Gel, read-out: Minimum Inhibitory Concentrations (MIC)): 0.032 µg/mL (≈ 0.107 µM) | MIC (S. aureus 13709 [4]; Staphylococcus aureus, 13709, S. aureus 13709, antibiotic delivered in HA thixogel, read-out: Minimum Inhibitory Concentrations (MIC)): < 0.032 µg/mL | MIC (S. aureus 13709 [4]; Staphylococcus aureus, 13709, S. aureus 13709, antibiotic delivered in SF thixogel, read-out: Minimum Inhibitory Concentrations (MIC)): 0.125 µg/mL (≈ 0.418 µM)

CN[C@H](CC(C)C)C(=O)N[C@H]1C(=O)N[C@@H](CC(N)=O)C(=O)N[C@H]2C(=O)N[C@H]3C(=O)N[C@H](C(=O)N[C@H](C(=O)O)c4cc(O)cc(O)c4-c4cc3ccc4O)[C@H](O)c3ccc(c(Cl)c3)Oc3cc2cc(c3O[C@@H]2O[C@H](CO)[C@@H](O)[C@H](O)[C@H]2O[C@H]2C[C@](C)(N)[C@H](O)[C@H](C)O2)Oc2ccc(cc2Cl)[C@H]1O [Vancomycin, vancomycin]
potency / coverage of both pathogenic bacteria (P. aeruginosa 27853 [3]; P. aeruginosa (Gram negative)): did not give coverage of both | MIC (P. aeruginosa 27853 [3]; Pseudomonas aeruginosa, 27853, read-out: Minimum Inhibitory Concentrations (MIC), P. aeruginosa 27853, No Gel): > 4 µg/mL | MIC (P. aeruginosa 27853 [3]; Pseudomonas aeruginosa, 27853, read-out: Minimum Inhibitory Concentrations (MIC), P. aeruginosa 27853, antibiotic delivered in HA thixogel): > 32 µg/mL | MIC (P. aeruginosa 27853 [3]; Pseudomonas aeruginosa, 27853, read-out: Minimum Inhibitory Concentrations (MIC), P. aeruginosa 27853, antibiotic delivered in SF thixogel): > 32 µg/mL | potency / coverage of both pathogenic bacteria (S. aureus 13709 [4]; S. aureus (Gram positive)): did not give coverage of both | MIC (S. aureus 13709 [4]; Staphylococcus aureus, 13709, read-out: Minimum Inhibitory Concentrations (MIC), S. aureus 13709, No Gel): 2 µg/mL (≈ 1.38 µM) | MIC (S. aureus 13709 [4]; Staphylococcus aureus, 13709, read-out: Minimum Inhibitory Concentrations (MIC), S. aureus 13709, antibiotic delivered in HA thixogel): 16 µg/mL (≈ 11 µM) | MIC (S. aureus 13709 [4]; Staphylococcus aureus, 13709, read-out: Minimum Inhibitory Concentrations (MIC), S. aureus 13709, antibiotic delivered in SF thixogel): 4 µg/mL (≈ 2.76 µM)

gentamycin
effect of the gels (SF and HA) upon potency (P. aeruginosa 27853 [3]; P. aeruginosa): deleterious effect upon potency | Minimum Inhibitory Concentrations (MIC) (P. aeruginosa 27853 [3]; P. aeruginosa 27853, No Gel): 2 µg/mL | Minimum Inhibitory Concentrations (MIC) (P. aeruginosa 27853 [3]; P. aeruginosa 27853, antibiotic delivered in HA thixogel): 32 µg/mL | Minimum Inhibitory Concentrations (MIC) (P. aeruginosa 27853 [3]; P. aeruginosa 27853, antibiotic delivered in SF thixogel): 32 µg/mL | effect of the gels (SF and HA) upon potency (S. aureus 13709 [4]; S. aureus): deleterious effect upon potency | Minimum Inhibitory Concentrations (MIC) (S. aureus 13709 [4]; S. aureus 13709, No Gel): 1 µg/mL | Minimum Inhibitory Concentrations (MIC) (S. aureus 13709 [4]; S. aureus 13709, antibiotic delivered in HA thixogel): 32 µg/mL | Minimum Inhibitory Concentrations (MIC) (S. aureus 13709 [4]; S. aureus 13709, antibiotic delivered in SF thixogel): 8 µg/mL
